{
  "source": "patent US12409172B2",
  "about": "“Dosage regimen” (UNION therapeutics A/S, priority 2023, dated 2025)",
  "tested_on": "adults with moderate-to-severe plaque-type psoriasis",
  "assay": "Phase 2b dose-ranging study in psoriasis (Example 3): treatment-emergent adverse events and discontinuations",
  "format": "in vivo, human",
  "from_the_text": "• Percentage change in Psoriasis […] and Severity Index (PASI) score from Baseline at Week 16. Key Secondary Endpoints • Patients achieving 75% reduction in PASI (PASI75) response at Week 16. • Patients achieving a score of Clear (0) or Almost Clear (1) and an at least 2-point improvement in Investigator Global Assessment (IGA) at Week 16. […] Safety Endpoints: • The occurrence, severity, and seriousness of treatment-emergent adverse events (TEAEs) reported over the 16-week Treatment Period and the 4-week Follow-up Period. • Changes from Baseline in physical examination; vital sign measurements (body temperature, respiration rate, heart rate, and systolic and diastolic blood pressure measurements); and body weight over the 16-week Treatment Period and the 4-week Follow-up Period. • Changes from Baseline in electrocardiogram (ECG) findings over the 16-week Treatment Period and the 4-week Follow-up Period. • Changes from Baseline in safety laboratory values (haematology, serum chemistry, and urinalysis) over the 16-week Treatment Period and the 4-week Follow-up Period. • Hospital Anxiety and Depression Scale at each visit except Week 2. • Columbia-Suicide Severity Rating Scale (C-SSRS) at each visit except Weeks 1 and 2. Exploratory Endpoints: • Change from Baseline in Physician's Global Assessment of Fingernails (PGA-F) at Week 16. • Change in Scalp-Specific Investigator Global Assessment (ss-IGA) from Baseline at Week 16 in the subgroup of patients with Baseline score of at least 2 (mild scalp psoriasis). • Change from Baseline of scalp itch Numeric Rating Scale (NRS) at Week 16 in the subgroup of patients with Baseline score of at least 4 on the 11-point NRS. • Change from Baseline in joint pain NRS at Week 16 in patients with psoriatic arthritis (PsA) and a Baseline joint pain score of at least 4. • Change in cardiovascular risk factors at Week 16. The following parameters will be collected: weight, body mass index, waist and hip circumferences, blood pressure, fasting serum glucose, triglycerides, cholesterol (total and high-density lipoprotein/low-density lipoprotein fractions), and C-reactive protein. • Change from Baseline in skin biomarkers at Week 16 collected via tape stripping and analysed using proteomic methods. • Plasma levels of the drug and its metabolites at scheduled visits. Study Design\nAt Baseline and each visit from Week 4 onwards, PASI, BSA, IGA, and PSS were assessed. Quality of life was assessed by administration of DLQI at Baseline and at Weeks 16 and 20 visits. Additional efficacy parameters include: an ss-IGA, a Physician Global Assessment of fingernail psoriasis (PGA-F), and patient's joint pain NRS for those with a diagnosis of PsA. These parameters were assessed at Baseline and Weeks 16 and 20. Safety evaluations include adverse events (Aes), laboratory and vital sign assessments, physical examinations, as well as mood change evaluation by patient (Hospital Anxiety and Depression Scale) and suicidal ideation evaluation by Investigator (C-SSRS). A panel of cardiovascular risk factors were assessed at Baseline and Week 16.",
  "data": [
    {"smiles": "O=C(Cc1c(Cl)c[n+]([O-])cc1Cl)c1ccc(OC(F)F)c2c1OC1(CCS(=O)(=O)CC1)O2", "note": "[orismilast, 2-(3,5-dichloro-1-oxidopyridin-1-ium-4-yl)-1-[7-(difluoromethoxy)-1′,1′-dioxospiro[1,3-benzodioxole-2,4′-thiane]-4-yl]ethanone]", "values": [
      {"measurement": "Abdominal pain upper, adverse event leading to treatment discontinuation", "setting": "20 mg BID", "result": 2.1, "unit": "%"},
      {"measurement": "Abdominal pain upper, treatment-emergent adverse event", "setting": "20 mg BID", "result": 2.1, "unit": "%"},
      {"measurement": "Diarrhea (incl. loose stool), adverse event leading to treatment discontinuation", "setting": "20 mg BID", "result": 10.4, "unit": "%"},
      {"measurement": "Diarrhea (incl. loose stool), treatment-emergent adverse event", "setting": "20 mg BID", "result": 37.5, "unit": "%"},
      {"measurement": "Dizziness, adverse event leading to treatment discontinuation", "setting": "20 mg BID", "result": 2.1, "unit": "%"},
      {"measurement": "Dizziness, treatment-emergent adverse event", "setting": "20 mg BID", "result": 6.3, "unit": "%"},
      {"measurement": "Headache, adverse event leading to treatment discontinuation", "setting": "20 mg BID", "result": 2.1, "unit": "%"},
      {"measurement": "Headache, treatment-emergent adverse event", "setting": "20 mg BID", "result": 12.5, "unit": "%"},
      {"measurement": "Nausea, adverse event leading to treatment discontinuation", "setting": "20 mg BID", "result": 4.2, "unit": "%"},
      {"measurement": "Nausea, treatment-emergent adverse event", "setting": "20 mg BID", "result": 22.9, "unit": "%"},
      {"measurement": "Vomiting, adverse event leading to treatment discontinuation", "setting": "20 mg BID", "result": 0, "unit": "%"},
      {"measurement": "Vomiting, treatment-emergent adverse event", "setting": "20 mg BID", "result": 6.3, "unit": "%"},
      {"measurement": "discontinuations due to adverse events", "setting": "20 mg BID", "result": 21, "unit": "%"},
      {"measurement": "Abdominal pain upper, adverse event leading to treatment discontinuation", "setting": "30 mg BID", "result": 2.0, "unit": "%"},
      {"measurement": "Abdominal pain upper, treatment-emergent adverse event", "setting": "30 mg BID", "result": 6.0, "unit": "%"},
      {"measurement": "Diarrhea (incl. loose stool), adverse event leading to treatment discontinuation", "setting": "30 mg BID", "result": 6.0, "unit": "%"},
      {"measurement": "Diarrhea (incl. loose stool), treatment-emergent adverse event", "setting": "30 mg BID", "result": 48.0, "unit": "%"},
      {"measurement": "Dizziness, adverse event leading to treatment discontinuation", "setting": "30 mg BID", "result": 2.0, "unit": "%"},
      {"measurement": "Dizziness, treatment-emergent adverse event", "setting": "30 mg BID", "result": 14.0, "unit": "%"},
      {"measurement": "Headache, adverse event leading to treatment discontinuation", "setting": "30 mg BID", "result": 4.0, "unit": "%"},
      {"measurement": "Headache, treatment-emergent adverse event", "setting": "30 mg BID", "result": 26.6, "unit": "%"},
      {"measurement": "Nausea, adverse event leading to treatment discontinuation", "setting": "30 mg BID", "result": 8.0, "unit": "%"},
      {"measurement": "Nausea, treatment-emergent adverse event", "setting": "30 mg BID", "result": 38.0, "unit": "%"},
      {"measurement": "Vomiting, adverse event leading to treatment discontinuation", "setting": "30 mg BID", "result": 2.0, "unit": "%"},
      {"measurement": "Vomiting, treatment-emergent adverse event", "setting": "30 mg BID", "result": 8.0, "unit": "%"},
      {"measurement": "discontinuations due to adverse events", "setting": "30 mg BID", "result": 20, "unit": "%"},
      {"measurement": "Abdominal pain upper, adverse event leading to treatment discontinuation", "setting": "40 mg BID", "result": 7.5, "unit": "%"},
      {"measurement": "Abdominal pain upper, treatment-emergent adverse event", "setting": "40 mg BID", "result": 11.3, "unit": "%"},
      {"measurement": "Diarrhea (incl. loose stool), adverse event leading to treatment discontinuation", "setting": "40 mg BID", "result": 20.8, "unit": "%"},
      {"measurement": "Diarrhea (incl. loose stool), treatment-emergent adverse event", "setting": "40 mg BID", "result": 45.3, "unit": "%"},
      {"measurement": "Dizziness, adverse event leading to treatment discontinuation", "setting": "40 mg BID", "result": 1.9, "unit": "%"},
      {"measurement": "Dizziness, treatment-emergent adverse event", "setting": "40 mg BID", "result": 15.1, "unit": "%"},
      {"measurement": "Headache, adverse event leading to treatment discontinuation", "setting": "40 mg BID", "result": 3.8, "unit": "%"},
      {"measurement": "Headache, treatment-emergent adverse event", "setting": "40 mg BID", "result": 20.8, "unit": "%"},
      {"measurement": "Nausea, adverse event leading to treatment discontinuation", "setting": "40 mg BID", "result": 11.3, "unit": "%"},
      {"measurement": "Nausea, treatment-emergent adverse event", "setting": "40 mg BID", "result": 41.5, "unit": "%"},
      {"measurement": "Vomiting, adverse event leading to treatment discontinuation", "setting": "40 mg BID", "result": 5.7, "unit": "%"},
      {"measurement": "Vomiting, treatment-emergent adverse event", "setting": "40 mg BID", "result": 13.2, "unit": "%"}
    ]}
  ]
}
